Experimental data taken from PubChem BioAssay (NCI).
Where “and” joins values, the source holds several entries; their conditions need not be identical. Equal values may be shown once.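 Compound exposure: 48 hours, 5 concentrations, 96-well plates. The concentration for 50% growth inhibition is given as GI50. The concentration for full growth arrest is given as TGI.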

Tests used:
Assay in all cases: NCI anticancer screen, dose series, 48 h
[1] = tested on: KM12 colon
[2] = tested on: SF-268 CNS
[3] = tested on: MOLT-4 leukemia
[4] = tested on: 786-0 renal
[5] = tested on: IGROV1 ovarian
[6] = tested on: NCI-H226 lung
[7] = tested on: MDA-N
[8] = tested on: HOP-92 NSCLC
[9] = tested on: HT29 colon
[10] = tested on: HL-60(TB) leukemia
[11] = tested on: A549 NSCLC
[12] = tested on: M14 melanoma
[13] = tested on: SW-620 colon
[14] = tested on: MDA-MB-231 breast
[15] = tested on: OVCAR-8 ovarian
[16] = tested on: CAKI-1 renal
[17] = tested on: NCI-H522 lung
[18] = tested on: A498 renal
[19] = tested on: HCT-116 colon
[20] = tested on: BT-549 breast
[21] = tested on: T-47D breast
[22] = tested on: HCT-15 colon
[23] = tested on: SK-MEL-28 melanoma
[24] = tested on: SK-MEL-2 melanoma
[25] = tested on: MCF7 breast
[26] = tested on: NCI-H460 lung
[27] = tested on: DU-145 prostate
[28] = tested on: UO-31 renal
[29] = tested on: TK-10 renal
[30] = tested on: CCRF-CEM leukemia
[31] = tested on: NCI-H23 lung
[32] = tested on: MALME-3M melanoma
[33] = tested on: OVCAR-3 ovarian
[34] = tested on: LOX IMVI melanoma
[35] = tested on: OVCAR-5 ovarian
[36] = tested on: EKVX NSCLC
[37] = tested on: RPMI-8226 leukemia
[38] = tested on: HS 578T breast
[39] = tested on: MDA-MB-435
[40] = tested on: SF-295 CNS
[41] = tested on: SR leukemia
[42] = tested on: ACHN renal
[43] = tested on: COLO 205 colon
[44] = tested on: SNB-75 CNS
[45] = tested on: HCC-2998 colon
[46] = tested on: OVCAR-4 ovarian
[47] = tested on: SF-539 CNS
[48] = tested on: K-562 leukemia
[49] = tested on: SNB-19 CNS
[50] = tested on: SK-MEL-5 melanoma
[51] = tested on: U251 CNS
[52] = tested on: SK-OV-3 ovarian
[53] = tested on: PC-3 prostate
[54] = tested on: UACC-257 melanoma
[55] = tested on: RXF 393 renal
[56] = tested on: UACC-62 melanoma
[57] = tested on: HOP-62 NSCLC
[58] = tested on: SN12C renal
[59] = tested on: NCI/ADR-RES ovarian
[60] = tested on: M19-MEL melanoma
[61] = tested on: SNB-78 CNS
[62] = tested on: DLD-1 colon
[63] = tested on: DMS 273 small cell lung
[64] = tested on: HOP-18 NSCLC
[65] = tested on: DMS 114 small cell lung
[66] = tested on: KM20L2 colon
[67] = tested on: LXFL 529 NSCLC

CCc1nc(N)nc(N)c1-c1ccc(Cl)c([N+](=O)[O-])c1
TGI [1]: > 100000 nM
TGI [2]: > 100000 nM
TGI [3]: > 65200 nM
TGI [4]: > 100000 nM
TGI [5]: > 100000 nM
TGI [6]: > 100000 nM
TGI [7]: > 100000 nM
TGI [8]: > 87100 nM
TGI [9]: > 100000 nM
TGI [10]: > 51500 nM
TGI [11]: > 100000 nM
TGI [12]: 98800 nM
TGI [13]: > 100000 nM
TGI [14]: > 100000 nM
TGI [15]: > 100000 nM
TGI [16]: > 100000 nM
TGI [17]: > 100000 nM
TGI [18]: > 96000 nM
TGI [19]: > 100000 nM
TGI [20]: > 100000 nM
TGI [21]: > 100000 nM
TGI [22]: > 100000 nM
TGI [23]: > 100000 nM
TGI [24]: 90500 nM
TGI [25]: > 89700 nM
TGI [26]: > 100000 nM
TGI [27]: > 100000 nM
TGI [28]: > 100000 nM
TGI [29]: > 100000 nM
TGI [30]: > 32700 nM
TGI [31]: > 100000 nM
TGI [32]: > 100000 nM
TGI [33]: > 100000 nM
TGI [34]: > 100000 nM
TGI [35]: > 100000 nM
TGI [36]: > 100000 nM
TGI [37]: > 83900 nM
TGI [38]: > 100000 nM
TGI [39]: > 100000 nM
TGI [40]: > 70400 nM
TGI [41]: > 26500 nM
TGI [42]: > 100000 nM
TGI [43]: 55500 nM
TGI [44]: > 100000 nM
TGI [45]: > 100000 nM
TGI [46]: > 100000 nM
TGI [47]: 51400 nM
TGI [48]: > 100000 nM
TGI [49]: > 100000 nM
TGI [50]: 48800 nM
TGI [51]: > 100000 nM
TGI [52]: > 100000 nM
TGI [53]: > 100000 nM
TGI [54]: > 100000 nM
TGI [55]: > 100000 nM
TGI [56]: > 86400 nM
TGI [57]: > 95500 nM
TGI [58]: > 100000 nM
TGI [59]: > 100000 nM

COC(=O)[C@@H]1c2cc3c(c(O)c2[C@@H](OC2OC(C)C(OC)C(C)(OC)C2OC)C[C@]1(C)O)C(=O)c1c(O)cc2c(c1C3=O)O[C@H]1O[C@]2(C)[C@H](O)[C@@H](N(C)C)[C@@H]1O (some centres not stated)
TGI [1]: 42.5 nM and 50.8 nM
TGI [2]: 329 nM and 135 nM
TGI [3]: 229 nM and 90.3 nM
TGI [60]: 15.6 nM and 18.5 nM
TGI [4]: 2100 nM
TGI [5]: 650 nM and 4740 nM
TGI [6]: 71.8 nM and 96.6 nM
TGI [7]: 179 nM
TGI [61]: 76.2 nM
TGI [8]: 54.6 nM and 418 nM
TGI [9]: 10100 nM
TGI [10]: 107 nM
TGI [11]: 10300 nM
GI50 [12]: 19.4 nM
TGI [12]: 140 nM and 107 nM
TGI [13]: 292 nM and 1370 nM
TGI [14]: 214 nM
TGI [15]: 532 nM and 348 nM
TGI [62]: 258 nM and 436 nM
TGI [17]: 63.8 nM and 13.1 nM
TGI [18]: 16.2 nM
TGI [20]: 58.8 nM
TGI [21]: 889 nM
TGI [63]: 28.2 nM
GI50 [22]: 117 nM
TGI [22]: 1140 nM
TGI [23]: 69.9 nM and 27.3 nM
TGI [24]: 13.4 nM and 17.7 nM
TGI [26]: 33.6 nM
TGI [27]: 455 nM
GI50 [28]: 210 nM
TGI [28]: 983 nM and 1170 nM
GI50 [29]: 38.6 nM
TGI [30]: 198 nM and 258 nM
GI50 [64]: 40.4 nM
GI50 [31]: 14.1 nM
TGI [31]: 39.9 nM and 69.4 nM
TGI [32]: 66.6 nM and 54.5 nM
GI50 [33]: 68.3 nM
TGI [34]: 152 nM and 1220 nM
GI50 [35]: 65.1 nM
TGI [65]: 5.21 nM
GI50 [36]: 103 nM
TGI [37]: 55.7 nM
TGI [38]: 147 nM
TGI [39]: 188 nM
TGI [40]: 254 nM and 1220 nM
GI50 [42]: 11.4 nM
TGI [42]: 951 nM and 5370 nM
TGI [43]: 35.1 nM
TGI [44]: 52.2 nM and 12.5 nM
TGI [45]: 30.5 nM and 22.3 nM
TGI [46]: 291 nM
TGI [47]: 160 nM and 30.2 nM
TGI [48]: 399 nM and 162 nM
TGI [49]: 11100 nM
TGI [50]: 27.8 nM
GI50 [66]: 12.7 nM
TGI [51]: 443 nM and 236 nM
TGI [52]: 4940 nM
TGI [53]: 297 nM
TGI [67]: 1280 nM
GI50 [54]: 12.3 nM
TGI [54]: 63.8 nM and 47.2 nM
TGI [55]: 74.9 nM and 59.4 nM
TGI [56]: 20.6 nM and 27.7 nM
TGI [57]: 328 nM and 43.5 nM
TGI [58]: 2000 nM

CN1C=c2c3c(ccc2=C2C=CC4C=C5OCOC5=CC4=C21)OCO3 (configuration not stated)
GI50 [1]: 1270 nM and 4060 nM
TGI [1]: 2800 nM and 13200 nM
TGI [2]: 3460 nM and 6760 nM
GI50 [3]: 253 nM and 1740 nM
TGI [4]: 2650 nM and 3060 nM
TGI [5]: 3050 nM and 4010 nM
GI50 [6]: 1820 nM and 7180 nM
TGI [6]: 3360 nM and 14700 nM
TGI [7]: 2790 nM and 3980 nM
GI50 [8]: 1620 nM and 5710 nM
TGI [8]: 3000 nM and 14100 nM
TGI [9]: 3020 nM and 5100 nM
TGI [10]: 434 nM and 847 nM
GI50 [11]: 1770 nM and 6260 nM
TGI [11]: 3950 nM and 18800 nM
TGI [12]: 2550 nM and 3780 nM
GI50 [13]: 1250 nM
TGI [13]: 2520 nM and 2990 nM
TGI [14]: 2540 nM and 4520 nM
GI50 [15]: 423 nM and 1520 nM
TGI [15]: 1640 nM and 4190 nM
GI50 [16]: 1420 nM and 3490 nM
TGI [16]: 2740 nM and 10600 nM
TGI [17]: 2760 nM and 3300 nM
GI50 [18]: 2240 nM and 14100 nM
TGI [18]: 5040 nM and 27100 nM
TGI [19]: 2390 nM and 3190 nM
TGI [20]: 3380 nM and 6260 nM
TGI [21]: 4310 nM and 5010 nM
TGI [22]: 2890 nM and 3200 nM
TGI [23]: 3070 nM and 7280 nM
TGI [24]: 3530 nM and 5870 nM
GI50 [25]: 1480 nM and 4400 nM
TGI [25]: 2890 nM and 17400 nM
GI50 [26]: 1630 nM and 3160 nM
TGI [26]: 3180 nM and 9800 nM
GI50 [27]: 2200 nM and 11900 nM
TGI [27]: 3760 nM and 24300 nM
TGI [28]: 2790 nM and 5000 nM
GI50 [29]: 1770 nM and 12000 nM
TGI [29]: 3200 nM and 24900 nM
GI50 [30]: 210 nM and 1030 nM
TGI [31]: 2950 nM and 10300 nM
TGI [32]: 3050 nM and 5920 nM
TGI [33]: 2160 nM and 3200 nM
TGI [34]: 3170 nM and 3330 nM
GI50 [35]: 1650 nM and 6190 nM
TGI [35]: 3040 nM and 18500 nM
GI50 [36]: 1720 nM and 13500 nM
TGI [36]: 3160 nM and 26300 nM
GI50 [37]: 625 nM and 2240 nM
TGI [37]: 1860 nM and 6790 nM
TGI [38]: > 24900 nM and 5780 nM
TGI [39]: 2450 nM and 3610 nM
GI50 [40]: 1790 nM and 8510 nM
TGI [40]: 3200 nM and 21900 nM
GI50 [41]: 2480 nM
GI50 [42]: 1680 nM and 1850 nM
TGI [42]: 3080 nM and 5030 nM
TGI [43]: 2780 nM and 3500 nM
TGI [44]: 3490 nM and 14600 nM
GI50 [45]: 1560 nM and 6550 nM
TGI [45]: 3240 nM and 16200 nM
TGI [46]: 3530 nM and 7500 nM
TGI [47]: 3180 nM and 4800 nM
GI50 [48]: 1370 nM and 3010 nM
GI50 [49]: 1650 nM and 12200 nM
TGI [49]: 3070 nM and 25000 nM
TGI [50]: 2950 nM and 6140 nM
TGI [51]: 3050 nM and 5730 nM
GI50 [52]: 1850 nM and 12700 nM
TGI [52]: 3960 nM and 25400 nM
TGI [53]: 2850 nM and 9480 nM
TGI [54]: 3260 nM and 10100 nM
TGI [55]: 2570 nM and 4400 nM
GI50 [56]: 1910 nM
TGI [57]: 2970 nM and 6290 nM
TGI [58]: 2900 nM and 3870 nM
GI50 [59]: 1580 nM and 6130 nM
TGI [59]: 3270 nM and 14300 nM
